For 32 compounds, IC50 and selectivity ratio results are on record in ChEMBL document CHEMBL1149084, “Synthesis and evaluation of 2-pyridyl pyrimidines with in vitro antiplasmodial and antileishmanial activity” (Bioorg Med Chem Lett, 2009).

Data set [1] has as its system Plasmodium falciparum. Description: Antiplasmodial activity against chloroquine-resistant Plasmodium falciparum K1. The class given is functional, organism-based.
Another data set has as its system L6. Nature of the data set: Cytotoxicity against rat L6 cells. The class given is ADME, cell-based.
The next data set has as its system Leishmania donovani. Nature of the data set: Antileishmanial activity against Leishmania donovani. The class given is functional, organism-based.
Data set [2] in a line: Selectivity ratio of IC50 for rat L6 cells to IC50 for Leishmania donovani.
Data set [3] has as its system Plasmodium falciparum. Nature of the data set: Antimalarial activity against chloroquine-resistant Plasmodium falciparum Dd2 after 24 hrs by [3H]hypoxanthine uptake. The class given is functional, organism-based.
Data set [4] in a line: Inhibition of GST-tagged Plasmodium falciparum MetAP 1B by […].

With `Cc1nc(-c2ccccn2)nc(N2CCN(CCO)CC2)c1Cl`, the 50% inhibitory concentration (IC50) turned out to be 7.5 µM with Plasmodium falciparum [1], 270 µM in the data set on L6 and 156 µM in the data set with Leishmania donovani.

As to `Cc1nc(-c2ccccn2)nc(NCCc2ccccc2Cl)c1Cl`, the IC50 came out at 6.3 µM with Plasmodium falciparum [1], 91.6 µM in the data set on L6 and 1.2 µM with Leishmania donovani.

Turning to `Cc1nc(-c2ccccn2)nc(NCCc2ccc(Cl)cc2)c1Cl`, the values for the IC50 in the data set on Plasmodium falciparum [1], with L6 and in the data set with Leishmania donovani were 2 µM, 40.4 µM and 0.45 µM, respectively.

For `Cc1nc(-c2ccccn2)nc(NCC2CCCCC2)c1Cl`, the IC50 is 2.4 µM with Plasmodium falciparum [1], 42.4 µM in the data set with L6 and 0.31 µM in the data set with Leishmania donovani.

Take `Cc1nc(-c2ccccn2)nc(NCCC2CCCCC2)c1Cl`: the IC50 in the data set on Plasmodium falciparum [1] was found to be 2.3 µM; with L6, 49.5 µM; in the data set on Leishmania donovani, 0.26 µM.

In the case of `Cc1nc(-c2ccccn2)nc(N2CCC(Cc3ccccc3)C2)c1Cl` (stereo unspecified), the IC50 in the data set on Plasmodium falciparum [1] stood at 3.1 µM; in the data set on L6, 88 µM; with Leishmania donovani, 0.38 µM.

As for `Cc1nc(-c2ccccn2)nc(N(C)CCc2ccccc2)c1Cl`, the IC50 with Plasmodium falciparum [1] is 3.5 µM; in the data set on L6 it was 62.5 µM; in the data set on Leishmania donovani, 0.32 µM.

Turning to `Cc1nc(-c2ccccn2)nc(NCC2CCOC2)c1Cl` (stereo unspecified), the half-inhibitory concentration (IC50) is 15.3 µM in the data set with Plasmodium falciparum [1], 125 µM in the data set on L6 and 10.5 µM with Leishmania donovani.

For `C[C@@H]1CC[C@H]2[C@@H](C)C(=O)O[C@@H]3O[C@@]4(C)CC[C@@H]1[C@]32OO4` [ARTEMISININ], the IC50 in the data set with Plasmodium falciparum [1] was 0.005 µM; with L6, greater than 170 µM.

With `Cc1nc(-c2ccccn2)nc(N2CCN(S(=O)(=O)c3ccccc3)CC2)c1Cl`, the IC50 in the data set with Plasmodium falciparum [1] was determined as 11.6 µM; with L6, 210 µM; in the data set with Leishmania donovani, 54.4 µM.

In the case of `Cc1nc(-c2ccccn2)nc(N)c1Cl`, the results for the IC50 in the data set with Plasmodium falciparum [1], in the data set with L6 and in the data set with Leishmania donovani were 20.8 µM, 85.3 µM and 3.3 µM, respectively. For the same compound, the selectivity ratio in data set [2] is greater than 10.

For `CCCCCCCCCCCCCCCCOP(=O)([O-])OCC[N+](C)(C)C` [MILTEFOSINE], the half-inhibitory concentration (IC50) in the data set with Leishmania donovani amounted to 0.7 µM.

Consider `Cc1nc(-c2ccccn2)nc(NCCc2ccccc2)c1Cl`, for which the half-maximal inhibitory concentration (IC50) in the data set with Plasmodium falciparum [1] came to 9.8 µM; with Plasmodium falciparum [3], 3.1 µM; in data set [4], 0.11 µM; in the data set on L6, 25.5 µM; in the data set on Leishmania donovani it was 0.5 µM.

As to `Cc1nc(-c2ccccn2)nc(NCc2ccc(S(C)(=O)=O)cc2)c1Cl`, the IC50 is 10.1 µM with Plasmodium falciparum [1], 93.6 µM with L6 and 10.7 µM in the data set on Leishmania donovani.

On to `COc1ccc(CCNc2nc(-c3ccccn3)nc(C)c2Cl)cc1`, for which the figures for the half-maximal inhibitory concentration (IC50) in the data set with Plasmodium falciparum [1], in the data set on L6 and in the data set with Leishmania donovani were 2.5 µM, 8.7 µM and 0.43 µM, respectively.

As for `Cc1nc(-c2ccccn2)nc(N2CCCC2Cc2ccccc2)c1Cl` (stereo unspecified), the figures for the IC50 in the data set with Plasmodium falciparum [1], in the data set with L6 and with Leishmania donovani were 4.3 µM, 92.3 µM and 0.63 µM, respectively.

Consider `CCN(CC)c1nc(-c2ccccn2)nc(C)c1Cl`, for which the IC50 came out at 9 µM in the data set on Plasmodium falciparum [1], 148 µM in the data set with L6 and 1.22 µM with Leishmania donovani. For the same compound, in data set [2], the selectivity ratio is greater than 10.

For `Cc1nc(-c2ccccn2)nc(NCCc2ccc(S(C)(=O)=O)cc2)c1Cl`, the IC50 with Plasmodium falciparum [1] was 8.2 µM; in the data set on L6, 104 µM; in the data set with Leishmania donovani it was 7.4 µM.

`Cc1nc(-c2ccccn2)nc(N2CCC(c3ccccc3)CC2)c1Cl`: the values for the IC50 in the data set with Plasmodium falciparum [1], with L6 and in the data set with Leishmania donovani were 8.9 µM, 183 µM and 1.1 µM, respectively.

Regarding `Cc1nc(-c2ccccn2)nc(N2CCCC2c2ccccc2)c1Cl` (stereo unspecified), the IC50 in the data set on Plasmodium falciparum [1] stood at 4.1 µM; with L6, 76.5 µM; with Leishmania donovani, 0.7 µM.

As for `Cc1nc(-c2ccccn2)nc(NCCc2ccncc2)c1Cl`, the 50% inhibitory concentration (IC50) in the data set with Plasmodium falciparum [1] is 9.5 µM; with L6, 110 µM; in the data set on Leishmania donovani, 14.1 µM.

`FC(F)(F)c1cc(NCCc2ccccc2)nc(-c2ccccn2)n1`: the IC50 in the data set on Plasmodium falciparum [1] was 8.2 µM; in the data set on L6, 74.2 µM; in the data set with Leishmania donovani, 2 µM.

For `Cc1cc(NCCc2ccccc2)nc(-c2ccccn2)n1`, the results for the IC50 in the data set on Plasmodium falciparum [1], with L6 and in the data set with Leishmania donovani were 3.7 µM, 18.3 µM and 3 µM, respectively.

Take `Cc1nc(-c2ccccn2)nc(NCCCc2ccccc2)c1Cl`: the IC50 turned out to be 1.9 µM in the data set with Plasmodium falciparum [1], 73.5 µM in the data set on L6 and 0.48 µM with Leishmania donovani.

On to `Cc1nc(-c2ccccn2)nc(NCCS(=O)(=O)c2ccccc2)c1Cl`, for which the concentration for half-maximal inhibition (IC50) in the data set with Plasmodium falciparum [1] turned out to be 10.4 µM; in the data set with L6, 72.8 µM; with Leishmania donovani it was 11.4 µM.

Take `CCN(CC)CCCC(C)Nc1ccnc2cc(Cl)ccc12` (stereo unspecified) [CHLOROQUINE]: the IC50 in the data set on L6 was 70.1 µM.

For the compound `Cc1nc(-c2ccccn2)nc(NCc2ccccc2)c1Cl`, the IC50 in the data set with Plasmodium falciparum [1] is 3.2 µM; with L6, 70.1 µM; in the data set with Leishmania donovani, 0.47 µM.

With `Cc1nc(-c2ccccn2)nc(NCCc2cccc(Cl)c2)c1Cl`, the results for the IC50 in the data set on Plasmodium falciparum [1], with L6 and with Leishmania donovani were 2.5 µM, 32.6 µM and 0.44 µM, respectively.

With `Cc1nc(-c2ccccn2)nc(N2CCC(c3ccccc3)C2)c1Cl` (stereo unspecified), the IC50 in the data set on Plasmodium falciparum [1] was 4.7 µM; in the data set on L6, 133 µM; with Leishmania donovani, 0.39 µM.

Consider `Cc1nc(-c2ccccn2)nc(N(C)C)c1Cl`, for which the 50% inhibitory concentration (IC50) in the data set on Plasmodium falciparum [1] was 15.1 µM; with L6, 115 µM; with Leishmania donovani, 1.1 µM. In addition, the selectivity ratio in data set [2] is greater than 10.

In the case of `Cc1nc(-c2ccccn2)nc(NC2Cc3ccccc3C2)c1Cl`, the figures for the IC50 in the data set on Plasmodium falciparum [1], in the data set with L6 and in the data set on Leishmania donovani were 3.7 µM, 33.2 µM and 0.42 µM, respectively.

In the case of `Cc1nc(-c2ccccn2)nc(NCCNc2cc(C(F)(F)F)ccn2)c1Cl`, the IC50 in the data set with Plasmodium falciparum [1] amounted to 2.74 µM; in the data set on L6 it was 5.2 µM; with Leishmania donovani, 0.28 µM.

For orientation: IC50 means the concentration needed to halve the response being measured. High values mean weaker potency in that assay, low ones greater potency in that assay.
